Laboratory results taken from patent US9273058B2 (BRISTOL-MYERS SQUIBB COMPANY, priority 2013, dated 2016).
Like-named read-outs stand apart in the source and are kept apart here.

Key:
CK1δ = CK1δ (Homo sapiens, UniProt P48730); experiment: CK1δ kinase assay (Caliper LabChip electrophoretic separation of fluoresceinated peptide substrate and product); type: biochemical; conditions: 200 pM CK1δ, 50 μM ATP, 1.5 μM peptide, 22 hours at room temperature
Summary of the method: (§1)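 Eleven-concentration compound series in kinase reactions run for 22 hours at room temperature. Terminated with EDTA, with product conversion read by electrophoretic separation. Non-linear regression gave IC50.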

CK1ε = CK1ε (Homo sapiens, UniProt P49674); experiment: CK1ε kinase assay (Caliper LabChip electrophoretic separation of fluoresceinated peptide substrate and product); type: biochemical; conditions: 200 pM CK1ε, 50 μM ATP, 1.5 μM peptide, 22 hours at room temperature
CK1ε, sequence (P49674 whole entry): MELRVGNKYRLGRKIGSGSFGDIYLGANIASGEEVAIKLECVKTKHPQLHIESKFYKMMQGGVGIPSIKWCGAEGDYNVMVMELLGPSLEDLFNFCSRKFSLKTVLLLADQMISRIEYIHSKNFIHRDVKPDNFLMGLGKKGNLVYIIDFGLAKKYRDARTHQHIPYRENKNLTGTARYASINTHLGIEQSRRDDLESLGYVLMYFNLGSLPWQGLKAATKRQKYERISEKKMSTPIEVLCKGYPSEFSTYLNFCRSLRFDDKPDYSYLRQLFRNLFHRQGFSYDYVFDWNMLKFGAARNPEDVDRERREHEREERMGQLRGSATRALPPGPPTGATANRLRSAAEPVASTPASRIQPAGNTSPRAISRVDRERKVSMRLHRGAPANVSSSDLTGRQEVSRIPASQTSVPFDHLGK
Summary of the method: as §1

CK1δ, sequence (P48730 whole entry): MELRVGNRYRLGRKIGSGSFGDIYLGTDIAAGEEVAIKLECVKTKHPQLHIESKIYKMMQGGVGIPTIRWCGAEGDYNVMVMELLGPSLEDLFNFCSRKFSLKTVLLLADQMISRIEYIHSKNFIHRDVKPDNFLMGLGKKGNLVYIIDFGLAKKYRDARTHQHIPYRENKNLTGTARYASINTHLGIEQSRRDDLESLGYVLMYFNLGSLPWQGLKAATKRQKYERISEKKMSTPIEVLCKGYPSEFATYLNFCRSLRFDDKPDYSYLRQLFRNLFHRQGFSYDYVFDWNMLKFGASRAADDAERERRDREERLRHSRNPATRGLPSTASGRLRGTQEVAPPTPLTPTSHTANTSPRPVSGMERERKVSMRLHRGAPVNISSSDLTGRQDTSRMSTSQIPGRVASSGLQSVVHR

IC50 (CK1δ; read-out: CK1δ IC50 range) [nM]	IC50 (CK1ε; read-out: CK1ε IC50 range) [nM]	IC50 (CK1δ; read-out: CK1δ) [nM]	IC50 (CK1ε; read-out: CK1ε) [nM]	SMILES
0.01 to 10	0.01 to 10			CC(C)(O)[C@H](F)CNC(=O)N1CCn2nc(-c3ccc(Cl)c(Cl)c3)c(C(N)=O)c2C1 [Compound 338, (R)-2-(3,4-Dichlorophenyl)-N^5-(2-fluoro-3-hydroxy-3-methylbutyl)-6,7-dihydropyrazolo[1,5-a]pyrazine-3,5(4H)-dicarboxamide]
0.01 to 10	0.01 to 10			NC(=O)c1c(-c2ccc(F)c(Cl)c2)nn2c1CN(C(=O)NC1CN(CC(F)(F)F)C1)CC2 [Compound 339, 2-(3-Chloro-4-fluorophenyl)-N^5-(1-(2,2,2-trifluoroethyl)azetidin-3-yl)-6,7-dihydropyrazolo[1,5-a]pyrazine-3,5(4H)-dicarboxamide]
10 to 100	10 to 100	18.1	19.8	CC(C)(C)NC(=O)N1Cc2c(C(N)=O)c(-c3ccc(F)c(Cl)c3)nn2[C@H]2COC[C@H]21 [Compound 352, (5aS,8aR)—N^5-(tert-Butyl)-2-(3-chloro-4-fluorophenyl)-5a,6,8,8a-tetrahydrofuro[3,4-e]pyrazolo[1,5-a]pyrazine-3,5(4H)-dicarboxamide]
0.01 to 10	0.01 to 10			NC(=O)c1c(-c2ccc(F)c(Cl)c2)nn2c1CN(C(=O)NC1CC(F)(F)C1)[C@@H]1COC[C@@H]12 [Compound 353, (5aS,8aR)-2-(3-Chloro-4-fluorophenyl)-N^5-(3,3-difluorocyclobutyl)-5a,6,8,8a-tetrahydrofuro[3,4-e]pyrazolo [1,5-c]pyrazine-3,5(4H)-dicarboxamide]
0.01 to 10	0.01 to 10			CC1(NC(=O)N2Cc3c(C(N)=O)c(-c4ccc(F)c(Cl)c4)nn3[C@H]3COC[C@H]32)CC(F)(F)C1 [Compound 354, (5aS,8aR)-2-(3-Chloro-4-fluorophenyl)-N^5-(3,3-difluoro-1-methylcyclobutyl)-5a,6,8,8a-tetrahydrofuro[3,4-e]pyrazolo [1,5-a]pyrazine-3,5(4H)-dicarboxamide]
0.01 to 10	0.01 to 10			CC(C)(C)NC(=O)N1Cc2c(C(N)=O)c(-c3cccc(Cl)c3)nn2C(CF)C1 (stereo not drawn) [Compound A5, N^5-(tert-butyl)-2-(3-chlorophenyl)-7-(fluoromethyl)-6,7-dihydropyrazolo[1,5-a] pyrazine-3,5(4H)-dicarboxamide]
0.01 to 10	0.01 to 10			CC1(NC(=O)N2Cc3c(C(N)=O)c(-c4ccc(F)c(Cl)c4)nn3C(CF)C2)CC(F)(F)C1 (stereo not drawn) [Compound A9, 2-(3-Chloro-4-fluorophenyl)-N^5-(3,3-difluoro-1-methylcyclobutyl)-7-(fluoromethyl)-6,7-dihydropyrazolo[1,5-a]pyrazine-3,5(4H)-dicarboxamide]
0.01 to 10	0.01 to 10			CC1(NC(=O)N2Cc3c(C(N)=O)c(-c4ccc(F)c(Cl)c4)nn3C(CF)C2)CC(F)(F)C1 (stereo not drawn) [Compound A10, 2-(3-Chloro-4-fluorophenyl)-N^5-(3,3-difluoro-1-methylcyclobutyl)-7-(fluoromethyl)-6,7-dihydropyrazolo[1,5-a]pyrazine-3,5(4H)-dicarboxamide]
0.01 to 10	0.01 to 10			NC(=O)c1c(-c2ccc(F)c(Cl)c2)nn2c1CN(C(=O)NC1CCCC1)CC2C(F)F (stereo not drawn) [Compound A11, 2-(3-Chloro-4-fluorophenyl)-N^5-cyclopentyl-7-(difluoromethyl)-6,7-dihydropyrazolo[1,5-a]pyrazine-3,5(4H)-dicarboxamide]
10 to 100	0.01 to 10			NC(=O)c1c(-c2ccc(F)c(Cl)c2)nn2c1CN(C(=O)NC1CCCC1)CC2C(F)F (stereo not drawn) [Compound A12, 2-(3-Chloro-4-fluorophenyl)-N^5-cyclopentyl-7-(difluoromethyl)-6,7-dihydropyrazolo[1,5-a]pyrazine-3,5(4H)-dicarboxamide]
0.01 to 10	0.01 to 10			NC(=O)c1c(-c2ccc(F)c(Cl)c2)nn2c1CN(C(=O)NC1CCC(F)(F)CC1)C[C@H]2C(F)F [Compound A13, (S)-2-(3-Chloro-4-fluorophenyl)-N^5-(4,4-difluorocyclohexyl)-7-(difluoromethyl)-6,7-dihydropyrazolo[1,5-a] pyrazine-3,5(4H)-dicarboxamide]
0.01 to 10	0.01 to 10			NC(=O)c1c(-c2ccc(F)c(Cl)c2)nn2c1CN(C(=O)NC1CCC(F)(F)CC1)C[C@@H]2C(F)F [Compound A14, (R)-2-(3-Chloro-4-fluorophenyl)-N^5-(4,4-difluorocyclohexyl)-7-(difluoromethyl)-6,7-dihydropyrazolo[1,5-a] pyrazine-3,5(4H)-dicarboxamide]
0.01 to 10	0.01 to 10			CC(C)(C)NC(=O)N1Cc2c(C(N)=O)c(-c3ccc(F)c(Cl)c3)nn2C(CN2CCOCC2)C1 (stereo not drawn) [Compound A15, N^5-(tert-Butyl)-2-(3-chloro-4-fluorophenyl)-7-(morpholinomethyl)-6,7-dihydropyrazolo[1,5-a]pyrazine-3,5(4H)-dicarboxamide]
10 to 100	0.01 to 10			CC(C)(C)NC(=O)N1Cc2c(C(N)=O)c(-c3ccc(F)c(Cl)c3)nn2C(CN2CCOCC2)C1 (stereo not drawn) [Compound A16, N^5-(tert-Butyl)-2-(3-chloro-4-fluorophenyl)-7-(morpholinomethyl)-6,7-dihydropyrazolo[1,5-a]pyrazine-3,5(4H)-dicarboxamide]
10 to 100	10 to 100			CC(C)(C)NC(=O)N1Cc2c(C(N)=O)c(-c3ccc(F)c(Cl)c3)nn2C(C(C)(C)O)C1 (stereo not drawn) [Compound A17, N^5-(tert-Butyl)-2-(3-chloro-4-fluorophenyl)-7-(2-hydroxypropan-2-yl)-6,7-dihydropyrazolo[1,5-a]pyrazine-3,5(4H)-dicarboxamide]
0.01 to 10	0.01 to 10			CC(C)(C)NC(=O)N1Cc2c(C(N)=O)c(-c3ccc(F)c(Cl)c3)nn2C(C(C)(C)O)C1 (stereo not drawn) [Compound A18, N^5-(tert-Butyl)-2-(3-chloro-4-fluorophenyl)-7-(2-hydroxypropan-2-yl)-6,7-dihydropyrazolo[1,5-a]pyrazine-3,5(4H)-dicarboxamide]
10 to 100	10 to 100			CC(C)(O)[C@@H]1CN(C(=O)NC2CC(F)(F)C2)Cc2c(C(N)=O)c(-c3ccc(F)c(Cl)c3)nn21 [Compound A19, (S)-2-(3-Chloro-4-fluorophenyl)-N^5-(3,3 - difluorocyclobutyl)-7-(2-hydroxypropan-2-yl)-6,7-dihydropyrazolo[1,5-a] pyrazine-3,5(4H)-dicarboxamide]
0.01 to 10	0.01 to 10			CC(C)(O)[C@H]1CN(C(=O)NC2CC(F)(F)C2)Cc2c(C(N)=O)c(-c3ccc(F)c(Cl)c3)nn21 [Compound A20, (R)-2-(3-Chloro-4-fluorophenyl)-N^5-(3,3 difluorocyclobutyl)-7-(2-hydroxypropan-2-yl)-6,7-dihydropyrazolo[1,5-a] pyrazine-3,5(4H)-dicarboxamide]
10 to 100	0.01 to 10			CC(C)(C)NC(=O)N1Cc2c(C(N)=O)c(-c3ccc(F)c(Cl)c3)nn2C(COC(F)F)C1 (stereo not drawn) [Compound A21, N^5-(tert-Butyl)-2-(3-chloro-4-fluorophenyl)-7-((difluoromethoxy)methyl)-6,7-dihydropyrazolo[1,5-a]pyrazine-3,5(4H)-dicarboxamide]
0.01 to 10	0.01 to 10			CC(C)(C)NC(=O)N1Cc2c(C(N)=O)c(-c3ccc(F)c(Cl)c3)nn2C(COC(F)F)C1 (stereo not drawn) [Compound A22, N^5-(tert-Butyl)-2-(3-chloro-4-fluorophenyl)-7-((difluoromethoxy)methyl)-6,7-dihydropyrazolo[1,5-a]pyrazine-3,5(4H)-dicarboxamide]
